pIC50: −log10 of the molar value.
Legend:
Format in all cases: functional, cell-based
A549 = experiment: Compound was tested for antiproliferative activity against human A549 cancer cell lines using MTT assay
SK-BR-3 = experiment: Compound was tested for antiproliferative activity against human SK-BR-3 cancer cell lines
MKN-45 = experiment: Compound was tested for antiproliferative activity against human MKN45 cancer cell lines

Row | pIC50 (A549) | pIC50 (SK-BR-3) | pIC50 (MKN-45) | SMILES
1 | 4.92 | 5.50 | 4.41 | O=C(/C=C/c1ccc(CNC(=O)c2ccc(N3CCN(Cc4ccccn4)CC3)cc2)cc1)NO
2 | 5.78 | 6.57 | 5.53 | O=C(/C=C/c1ccc(CNC(=O)c2ccc(N3CCN(Cc4cccnc4)CC3)cc2)cc1)NO
3 | 6.08 | 6.23 | 5.97 | O=C(/C=C/C#Cc1ccc(NS(=O)(=O)c2ccccc2)cc1)NO [OXAMFLATIN]
4 | 5.52 | 5.76 | 4.25 | O=C(/C=C/c1ccc(CNC(=O)c2ccc(N3CCN(Cc4ccncc4)CC3)cc2)cc1)NO

Reference: ChEMBL document CHEMBL1145944, “Synthesis and biological evaluation of 3-(4-substituted-phenyl)-N-hydroxy-2-propenamides, a new class of histone deacetylase inhibitors” (J Med Chem, 2003)
